Among the data in a melting point compilation (Tetko et al.; mined from patent text by program, amines drawn as free bases though some values may be those of a salt) are melting point values, retold here.

A word on the melting point: it is the temperature, or range, at which the solid turns liquid. `CCNC(=O)n1nc(Oc2c([N+](=O)[O-])cc([N+](=O)[O-])cc2C(F)(F)F)cc1C` displayed a melting point of 169 to 171 °C.
With `CN1CCN(c2cccc3c2C[C@H](NC(=O)c2ccc(N4CCN(CCO)CC4)cc2)CO3)CC1`, the melting point lay in the range of 211 to 212 °C.
Turning to `COc1cc(OCC(=O)O)cc(C)c1SCc1sc(-c2ccc(C(F)(F)F)cc2)nc1C`, the melting point fell in the range of 164 to 165 °C.
To `CCOCc1nc2c(N)nc3ccccc3c2n1CCCC(C)=O` belongs 173 to 175 °C; to `COC(=O)Cn1c(=O)[nH]c2ccccc2c1=O`, 205 to 206 °C.
With `COc1ccccc1-c1ccc(S(N)(=O)=O)c(N)c1`, the melting point lay in the range of 219 to 221 °C.
On to `N#Cc1ccc(OCCc2cccc(F)c2)cc1`, for which the melting point was in the range of 79 to 81 °C.
For the compound `O=C(NC[C@H]1CN(c2ccc3c(c2)CCCc2cnn(C(=O)c4ccccc4)c2-3)C(=O)O1)c1ccccc1`, the melting point fell in the range of 75 to 95 °C.
`O=C1c2nccnc2C(=O)N1c1ccc2ccc(O)nc2n1` showed a melting point of 373 °C.
Compound `CCN(CC)Cc1ccc2nc(-c3ccccc3)cc(OCc3ccccc3)c2c1` had a melting point of 108 to 109 °C.
With `CC(C)c1c(S(=O)(=O)c2ccc(O)cc2)n(C)c2ccccc12` the figure was 188 °C.
For the compound `CCOC(=O)c1cc(NC(C)=O)cnc1C(=O)OCC`, the melting point lay within 108 to 110 °C.
Regarding `COc1ccc2cccc(C(CCO)CNC(=O)C3CC3)c2c1` (stereo not drawn), the melting point lay in the range of 158 to 160 °C.
With `Cn1cc(C(=O)N=C=O)c([N+](=O)[O-])n1` the figure was 55 to 59 °C.
To `CCOC(=O)C1=C(C)NC(c2nccn2C)=NC1c1ccc(F)cc1Cl` (stereo not drawn) belongs 166 to 167 °C.
Turning to `C=Cc1ccc(CC(N)=O)nc1`, the melting point was 120 to 121 °C.
With `c1ccc(-c2ccnc(-c3ccc4cc[nH]c4c3)n2)cc1`, the melting point was 160 °C.
Compound `C[C@]1(COc2ccc(N3CCC(Oc4ccc(OC(F)(F)F)cc4)CC3)nc2)Cn2cc([N+](=O)[O-])nc2O1` displayed a melting point of 186 to 187 °C.
`CC(=O)NCCc1ccc(CO)cc1` yielded a melting point of 72 to 73 °C.
`O=C(O)C(=O)c1ccc(OCCSc2ccccc2)cc1` gave a melting point of 72 to 73 °C.
The compound `Cc1[nH]cnc1CSCCSC#N` displayed a melting point of 101 to 103 °C.
To `CCCCc1c(OS(=O)(=O)c2ccc(C)cc2)n(-c2ccccc2)n(-c2ccccc2)c1=O` belongs 112 to 121 °C.
With `CCOC(=O)N1C=CC(c2c(-c3ccc(OC)cc3)nc3n2CCC3)C=C1`, the melting point was 116 to 118 °C.
As for `CCCCCCCCCCCCc1nnn(C(C(N)=O)c2c(C(C)C)cccc2C(C)C)n1` (stereo not drawn), the melting point lay within 91 to 93 °C.
To `O=C1NC(=O)C(Nc2ccc(CCNCC(O)COc3ccc(-c4ccccc4)cc3)cc2)S1` (stereo not drawn) belongs 70 to 71 °C.
For the compound `CN1c2ccc([N+](=O)[O-])cc2C(C)(C)C12C=Nc1cc(-c3ccc(N4CCCC4)cc3)c3ccccc3c1O2` (stereo not drawn), the melting point lay in the range of 260 to 262 °C.
In the case of `CC(=O)OCc1ccc(-c2ccc(COC(C)=O)cc2)cc1`, the melting point is 86 to 87 °C.
With `CN(C)C(=O)OC1c2nccnc2C(=O)N1c1ccc2ccc(Cl)nc2n1` (stereo not drawn) the figure was 270 °C; with `O=c1n(CCCF)nnn1-c1cc(Oc2ncccn2)c(Cl)cc1F`, 111 to 113 °C; with `CCOC(=O)CC(=O)Nc1nc(-c2ccc(OC)cc2)c(-c2cccnc2)s1`, 202 to 203 °C.
Compound `O=[N+]([O-])c1ccccc1NCCCCCCCCCCCCNc1ccccc1[N+](=O)[O-]` registered a melting point of 79 to 80 °C.
On to `CC(C)OC(=NC(=O)c1ccc(F)cc1)N1Cc2ccccc2-c2ccccc2C1`, for which the melting point lay in the range of 90 to 93 °C.
Compound `O=C1c2cc(-c3ccccc3)ccc2-c2c1c1ccc([N+](=O)[O-])cc1c(=O)n2CCCNS(=O)(=O)c1ccccc1` displayed a melting point of 246 to 247 °C.
With `COc1nc(C)nc2c1-c1ccc(Cl)cc1C(c1ccccc1)=NC2`, the melting point was 185 to 187 °C.
Consider `Cc1cc(-c2nnc3c4ccccc4c(OCc4cscn4)nn23)no1`, for which the melting point fell in the range of 227 to 229 °C.
The compound `C=CCc1c(O)cc(OC)c2c(C)cc(=O)oc12` showed a melting point of 198 °C.
`CCOC(=O)c1cc(Nc2cccc(Cl)c2)c(C(=O)OCC)cc1Nc1cccc(Cl)c1` yielded a melting point of 145 to 146 °C.
As to `CCCCc1ccc(C(=O)NCc2cccc3c2C(=O)N(C2CCC(=O)NC2=O)C3=O)nc1` (stereo not drawn), the melting point was in the range of 137 to 139 °C.
To `CC(C)c1nc(N)oc1-c1cccc2ccccc12` belongs 127 to 129 °C; to `CCCCCc1ccc(C(=O)Cc2cccc(C#N)c2)cc1`, 73 °C; to `Cn1c(/C=C/C(O)CC(O)CC(=O)O)c(-c2ccccc2)c2ccccc2c1=O` (stereo not drawn), 170 °C.
With `ON=Cc1c(O)ccc2c1OCO2` the figure was 161 to 162 °C; with `O=C1NCCN1c1ccc(S(=O)(=O)Nc2ccc(F)c(F)c2)cc1`, 225 to 226 °C; with `CON=C1CCc2c(cccc2OCC(O)CN2CCN(C(c3ccccc3)c3ccccc3)CC2)C1` (stereo not drawn), greater than 183 °C.
With `COC(=O)c1cc(Cl)sc1N` the figure was 99 to 101 °C; with `CCOC(=O)c1cc(C(O)(C(F)(F)F)C(F)(F)F)ccc1N`, 115 to 117 °C.
With `CC1(C)CCC2=C(C1=O)C(c1ccc(F)c(Br)c1)C1=C(COCC1=O)N2` (stereo not drawn), the melting point is greater than 260 °C.
Compound `CCCNC(=C1Sc2ccccc2C1=O)c1ccccc1` came in with a melting point of 124 to 125 °C.
For the compound `CCOC(CN1C(=O)C2=C(c3cccs3)N(CC(OCC)OCC)C(=O)C2=C1c1cccs1)OCC`, the melting point was in the range of 167 to 169 °C.
`CCOC(=O)C1=Cc2cc(Cl)cc(-c3cccc(OC)c3)c2OC1C(F)(F)F` (stereo not drawn): the melting point fell in the range of 93.7 to 95.1 °C.
Compound `O=c1ccccn1C1=CC(CF)(CF)Oc2ccc(C(F)(F)C(F)(F)C(F)(F)F)cc21` gave a melting point of 101 to 104 °C.
To `Cc1cc(-c2nnn(C)n2)cc(C)c1OCCCCC1Cc2cccnc2N1C` (stereo not drawn) belongs 54 to 57 °C.
As to `O=C(Nc1ccc2cc(CN3CCCC3)cnc2c1)c1ccc(-c2ccc(F)cc2)cc1`, the melting point is 210 to 212 °C.
To `COc1cc(N)c(Cl)cc1C(=O)NCC1CCN(CCCCCCC(=O)c2ccc(Cl)cc2)CC1` belongs 137 to 138 °C; to `COc1ccc2c(c1)CCC([C@@H]1CC[C@H](O)[C@@]1(C)CCO)C2` (stereo partly drawn), 151 to 153 °C.
In turn, `COc1ccc(-c2ccc(=O)n(Cc3nc(-c4ccc(F)cc4)no3)c2)cc1` yielded a melting point of 123 °C.
`COc1ccc(C(F)(F)F)cc1-c1cccn2nc(Nc3ccc4c(c3)CCN(C(=O)OC(C)(C)C)C4)nc12` showed a melting point of 86 to 90 °C.
`COC[C@H]1CCCN1C(=O)c1ccc(-c2[nH]nc3c2C(=O)c2c(NC(=O)NN4CCOCC4)cccc2-3)s1`: the melting point is 262 °C.
With `CCC(=O)N1CCC(C(=O)O)CC1` the figure was 91 to 94 °C; with `COc1cccc(C(O)(c2nccs2)C(F)(F)F)c1` (stereo not drawn), 88 to 92 °C; with `COC(=O)CNc1cccc(OCc2ccccc2)c1`, 92 to 94 °C.
As for `O=C(NN1CCCCCC1)c1nc(-c2ccc(Cl)cc2Cl)c(-c2ccc(Cl)cc2)s1`, the melting point was in the range of 185 to 186 °C.
Regarding `N#Cc1ccc2oc(-c3ccccc3)cc2c1`, the melting point fell in the range of 138 to 141 °C.
The compound `CCOC(=O)C1Nc2cc(Cl)c(Cl)cc2NC1=O` (stereo not drawn) registered a melting point greater than 300 °C.
`O=C1c2ccccc2COc2ccc(CC=NO)cc21` gave a melting point of 132 to 134 °C.
With `Cc1cccc2c1nc(-c1cccc3ccccc13)n2Cc1c(F)cccc1F` the figure was 121 to 123 °C; with `CC(C)(C)OC(=O)NC1(CCC(=O)O)CC=CO1` (stereo not drawn), 99 to 101 °C.
In the case of `CCCNC(=O)Nc1c(C)c(C)c2c(c1C)C(c1ccc(C(C)C)cc1)CO2` (stereo not drawn), the melting point is 177 to 178 °C.
Take `COc1ccc(F)cc1C(C)(C)CC(O)(Cn1[nH]c(=O)c2ccccc21)C(F)(F)F` (stereo not drawn): the melting point lay within 141 to 144 °C.
Turning to `Clc1cccc(-c2cc(Cl)nc3ccc(Br)cc23)c1`, the melting point turned out to be 125 °C.
`O=C(O)CCc1cccc(OCc2ccccc2Cl)c1OCc1ccccc1Cl` had a melting point of 131 to 132 °C.
With `Oc1ccc(C2COc3cc4c(cc3C2)OCO4)cc1` (stereo not drawn) the figure was 139 to 140 °C; with `C=C=COc1ccccc1S(=O)(=O)NC(=O)Nc1nc(C)nc(OC)n1`, 150 to 151 °C; with `CCOC(=O)c1cc2cc(Oc3ccc(S(C)(=O)=O)nc3)cc(CC)c2[nH]1`, 140 to 141 °C.
`CNC(=O)c1ncn(-c2cc3c(=O)n(NS(C)(=O)=O)c(=O)[nH]c3cc2C(F)(F)F)n1` returned a melting point of 257 to 260 °C.
Take `C[C@]1(COc2ccc(N3CCC(Nc4cc(Cl)cc(Cl)c4)CC3)cc2)Cn2cc([N+](=O)[O-])nc2O1`: the melting point lay within 122 to 124 °C.
Compound `CCCn1nnn(-c2cc(O)c(F)cc2F)c1=O` yielded a melting point of 65 to 67 °C.
Compound `Cc1nc(Sc2ccc(C(F)(F)F)cn2)sc1CC(=O)O` gave a melting point of 113 to 114 °C.
Regarding `COP(=O)(Nc1cc(C(C)C)ccc1N1CCOCC1)OC`, the melting point is 97 to 98 °C.
`CC(C)(C)OC(=O)C(CCC(N)=O)N1Cc2c(O)cccc2C1=O` (stereo not drawn): the melting point is 198 to 200 °C.
To `FC(F)(F)COc1ccc(CCNc2ncnc3scnc23)cn1` belongs 109 to 112 °C; to `CCCc1c(OC(C(=O)O)c2ccc(OC)cc2)ccc(C(C)=O)c1O` (stereo not drawn), 154 to 156 °C; to `Cc1cc(C(=O)CCc2cc(-c3ccc(C(F)(F)F)cc3)nn2CC2CC2)ccc1OCC(=O)O`, 168 to 175 °C.
Regarding `OC1CCCN(CC(O)COc2ccc(-c3ccc(F)cc3)cc2)C1` (stereo not drawn), the melting point was in the range of 100 to 102 °C.
Regarding `O=S1(=O)CCN2CCCC(c3ccc(Oc4cccc(Cl)c4)cc3)C2=N1` (stereo not drawn), the melting point lay within 165 to 167 °C.
With `Cc1c(C(=O)Nc2ccc(OCC(C)(C)C)c(C#N)c2)cnn1-c1ccc(F)cc1` the figure was 126 to 127 °C.
Compound `O=C(NC1(C(=O)O)CCCC1)OCc1ccccc1` gave a melting point of 70 to 80 °C.
With `CC(=O)N(C)c1cc(C(=O)C=CN(C)C)ccc1F` the figure was 131 to 132 °C.
